Active and inactive are the calls of the source. The rule behind the calls is not given here.

Data set [1] addresses T1, Acetylcholinesterase (Electrophorus electricus, UniProt O42275). Description: Inhibition of Electric eel AChE using acetylthiocholine iodide as substrate after 10 mins measured for every mins by Ellman's method.
Data set [2] addresses Cholinesterase (Homo sapiens, UniProt P06276). Description: Inhibition of human serum BChE using butyrylthiocholine iodide as substrate after 10 mins measured for every mins by Ellman's method.
Data set [3] can be described thus: Antioxidant activity assessed as DPPH radical scavenging activity at 10 uM after 30 mins under dark condition relative to control. The format is functional.
Data set [4] is described as follows: Selectivity index, ratio of IC50 for human serum BChE to IC50 for Electric eel AChE.
Data set [5] concerns Mus musculus. Description: Memory enhancing effect in Swiss albino mouse assessed as reversal of scopolamine-induced reduction in latency time at 5 mg/kg, ip qd pretreated for 1 hr followed by scopolamine addition by passive avoidance test. Format: functional, organism-based.
Data set [6] concerns Mus musculus. Description: Memory enhancing effect in Swiss albino mouse assessed as reversal of scopolamine-induced reduction in latency time at 1 mg/kg, ip qd pretreated for 1 hr followed by scopolamine addition by passive avoidance test. The format is functional, organism-based.
Data set [7] can be described thus: Neurotoxicity in Swiss albino mouse assessed as motor coordination by measuring fall off time at 5 mg/kg, po after 1 hr by rota rod test (reference value: 310.61 +/- 26.64 sec). Format: toxicity, organism-based. The note with it: in vivo. (In general: Falling from the rotarod earlier than controls is read as motor impairment.)
For data set [8], the system named is Mus musculus. Description: Cognitive enhancing effect in Swiss albino mouse assessed as reversal of scopolamine-induced reduction in spontaneous alteration score at 1 mg/kg, ip qd pretreated for 1 hr followed by scopolamine addition by Y-maze test. Format: functional, organism-based.
Data set [9] addresses Acetylcholinesterase (Homo sapiens) (UniProt P22303). Description: Displacement of Propidium iodide from PAS region of AChE (unknown origin) after 20 hrs by fluorescence assay relative to control. To be noted: concentration not given here.
Data set [10] in a line: in vitro. To be noted: PAMPA, pH 7.4.
Description: Effective permeability of the compound at pH 7.4 after 18 hrs by PAMPA-BBB assay
Data set [11] is described as follows: Acute toxicity in Swiss albino mouse assessed as mortality at 100 mg/kg, po measured at 14 days post administration. Format: organism-based. To be noted: in vivo, 336 h.
The test system of data set [12] is Mus musculus. Description: In vivo antioxidant activity in Swiss albino mouse brain assessed as increase in catalase activity by measuring decrease in H2O2 level at 5 mg/kg, ip qd pretreated for 1 hr followed by scopolamine addition. Format: functional, organism-based.
For data set [13], the system named is Mus musculus. Description: In vivo antioxidant activity in Swiss albino mouse brain assessed as decrease in MDA level at 5 mg/kg, ip qd pretreated for 1 hr followed by scopolamine addition by TBARS assay. Format: functional, organism-based.
Data set [14] is described as follows: Acute toxicity in Swiss albino mouse up to 100 mg/kg, po measured until 14 days. Format: organism-based. The note with it: in vivo, 336 h.
Data set [15] deals with Mus musculus. Description: In vivo antioxidant activity in Swiss albino mouse brain assessed as increase in SOD level at 5 mg/kg, ip qd pretreated for 1 hr followed by scopolamine addition measured every 30 secs interval for 2 mins. The format is functional, organism-based.
Data set [16] relates to Mus musculus. Description: In vivo antioxidant activity in Swiss albino mouse brain assessed as increase in GSH level at 5 mg/kg, ip qd pretreated for 1 hr followed by scopolamine addition. The format is functional, organism-based.
Data set [17] deals with Mus musculus. Description: Cognitive enhancing effect in Swiss albino mouse assessed as reversal of scopolamine-induced reduction in spontaneous alteration score at 5 mg/kg, ip qd pretreated for 1 hr followed by scopolamine addition by Y-maze test. The format is functional, organism-based.
A short description of data set [18]: Acute toxicity in Swiss albino mouse assessed as abnormal behavior at 100 mg/kg, po measured at 14 days post administration. The format is organism-based. The note with it: in vivo, 336 h.
The test system of data set [19] is Mus musculus. Description: Ex vivo inhibition of AChE in Swiss albino mouse brain at 5 mg/kg, ip qd pretreated for 1 hr followed by scopolamine addition using acetylthiocholine iodide as substrate by Ellman's method. The format is functional, organism-based. For orientation: DTNB colorimetry detects thiols as they appear.
Data set [20] relates to Mus musculus. Description: Cognitive enhancing effect in Swiss albino mouse assessed as reversal of scopolamine-induced anxiety by measuring increase in number of novel arm entries at 1 to 20 mg/kg, ip qd pretreated for 1 hr followed by scopolamine addition by Y-maze test. Format: functional, organism-based.
Data set [21] relates to Mus musculus. Description: In vivo antioxidant activity in Swiss albino mouse brain assessed as decrease in nitric oxide level at 5 mg/kg, ip qd pretreated for 1 hr followed by scopolamine addition by Griess reagent based assay. The format is functional, organism-based.
Data set [22] addresses T1, Acetylcholinesterase. Description: Inhibition of Electric eel AChE using acetylthiocholine iodide as substrate after 10 mins measured for every mins by Lineweaver-Burk plot analysis.
Data set [23] deals with Mus musculus. Description: Cognitive enhancing effect in Swiss albino mouse assessed as reversal of scopolamine-induced cainophobia behavior by measuring increase in number of novel arm entries at 1 to 20 mg/kg, ip qd pretreated for 1 hr followed by scopolamine addition by Y-maze test. The format is functional, organism-based.
Data set [24] can be described thus: Effective permeability of the compound by PAMPA. The format is ADME. The note with it: read-out: Peff.

T1 sequence (O42275 whole entry): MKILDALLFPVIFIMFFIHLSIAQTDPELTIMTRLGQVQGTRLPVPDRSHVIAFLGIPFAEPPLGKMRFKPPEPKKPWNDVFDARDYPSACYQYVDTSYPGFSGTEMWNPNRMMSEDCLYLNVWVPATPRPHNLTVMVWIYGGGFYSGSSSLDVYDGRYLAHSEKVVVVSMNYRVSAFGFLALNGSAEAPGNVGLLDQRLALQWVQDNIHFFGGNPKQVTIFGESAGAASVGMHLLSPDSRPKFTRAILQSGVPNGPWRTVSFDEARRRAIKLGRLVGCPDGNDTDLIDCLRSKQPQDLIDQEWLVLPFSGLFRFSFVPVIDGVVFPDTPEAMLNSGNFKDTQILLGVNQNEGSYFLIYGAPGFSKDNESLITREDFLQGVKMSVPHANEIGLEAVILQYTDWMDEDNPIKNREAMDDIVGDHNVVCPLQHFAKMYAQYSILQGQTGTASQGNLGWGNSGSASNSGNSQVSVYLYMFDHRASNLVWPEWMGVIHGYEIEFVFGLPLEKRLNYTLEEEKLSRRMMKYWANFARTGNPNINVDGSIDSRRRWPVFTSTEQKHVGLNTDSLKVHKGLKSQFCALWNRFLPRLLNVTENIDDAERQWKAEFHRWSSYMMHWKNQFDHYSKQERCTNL
Cholinesterase, sequence (P06276 whole entry): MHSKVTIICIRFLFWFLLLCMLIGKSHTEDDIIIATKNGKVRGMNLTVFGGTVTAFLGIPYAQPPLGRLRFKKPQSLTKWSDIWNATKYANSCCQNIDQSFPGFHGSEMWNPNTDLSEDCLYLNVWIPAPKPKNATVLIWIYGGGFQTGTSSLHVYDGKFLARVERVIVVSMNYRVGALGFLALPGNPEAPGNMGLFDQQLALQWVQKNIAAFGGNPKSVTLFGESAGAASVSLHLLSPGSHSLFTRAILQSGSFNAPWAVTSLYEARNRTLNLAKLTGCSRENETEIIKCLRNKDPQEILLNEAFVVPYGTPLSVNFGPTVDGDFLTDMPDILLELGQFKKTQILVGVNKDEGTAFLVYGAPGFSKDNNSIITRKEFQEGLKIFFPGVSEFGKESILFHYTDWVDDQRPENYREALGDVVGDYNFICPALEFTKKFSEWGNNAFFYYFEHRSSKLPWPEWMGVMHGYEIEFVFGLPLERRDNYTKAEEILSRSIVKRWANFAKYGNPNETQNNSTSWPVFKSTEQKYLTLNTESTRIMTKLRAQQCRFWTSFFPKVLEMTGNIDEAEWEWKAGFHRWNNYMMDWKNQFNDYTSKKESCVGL
Acetylcholinesterase (Homo sapiens), sequence (P22303 whole entry): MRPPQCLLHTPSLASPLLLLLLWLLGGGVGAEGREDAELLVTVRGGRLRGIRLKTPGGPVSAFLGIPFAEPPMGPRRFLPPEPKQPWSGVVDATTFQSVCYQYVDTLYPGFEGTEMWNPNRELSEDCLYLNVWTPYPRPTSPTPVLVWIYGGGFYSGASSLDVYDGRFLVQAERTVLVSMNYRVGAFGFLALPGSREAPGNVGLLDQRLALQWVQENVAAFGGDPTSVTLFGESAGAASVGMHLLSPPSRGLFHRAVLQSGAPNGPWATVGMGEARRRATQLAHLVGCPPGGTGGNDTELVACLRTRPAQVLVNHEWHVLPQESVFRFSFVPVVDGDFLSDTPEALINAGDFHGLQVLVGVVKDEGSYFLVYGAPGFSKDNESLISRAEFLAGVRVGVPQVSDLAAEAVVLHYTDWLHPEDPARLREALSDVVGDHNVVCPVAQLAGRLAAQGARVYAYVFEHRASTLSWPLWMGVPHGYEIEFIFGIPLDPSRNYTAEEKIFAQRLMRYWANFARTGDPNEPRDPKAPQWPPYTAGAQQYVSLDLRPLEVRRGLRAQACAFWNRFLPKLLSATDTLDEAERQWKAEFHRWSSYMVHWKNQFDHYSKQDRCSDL

For the molecule `CN(C)C(=O)Oc1ccccc1-c1nc2ccccc2o1`, the midpoint of inhibition in [1], the IC50, lay at 58.2 µM.
`Brc1ccc(/C=N/c2ccc(-c3nc4ccccc4o3)cc2)cc1`: the IC50 in data set [1] was 37.3 µM; in [2], above 50 µM. In addition, the Activity in data set [3] was below 10%.
Turning to `Oc1ccc(NCC(O)CNc2ccc(-c3nc4ccccc4o3)cc2)cc1` (stereo unspecified), in data set [4], the Ratio IC50 was 3.4. Moreover, the IC50 in data set [1] was 0.807 µM; in data set [2], 2.74 µM. Also, the Activity in data set [3] was 50%.
In the case of `CC(C)c1ccc(/C=N/c2ccc(-c3nc4ccccc4o3)cc2)cc1`, the half-inhibitory concentration (IC50) in [1] and in data set [2] was above 50 µM throughout. In addition, the Activity in data set [3] is below 10%.
For `Oc1ccc(/C=N/c2ccc(-c3nc4ccccc4o3)cc2)cc1`, the Ratio IC50 in data set [4] was 28.7. Further, the figures for the IC50 in data set [1] and in data set [2] were 0.94 µM and 27 µM, respectively. Moreover, in data set [3], the Activity is 31.8%.
`Oc1ccc(CNc2ccc(-c3nc4ccccc4o3)cc2)cc1`: the Ratio IC50 in data set [4] came to 6.5. Besides, the values for the IC50 in [1] and in [2] were 0.723 µM and 4.71 µM, respectively. The Activity in [3] was found to be 39.4%.
Consider `CC(C)c1ccc(NCC(O)CNc2ccc(-c3nc4ccccc4o3)cc2)cc1` (stereo unspecified), for which the values for the half-inhibitory concentration (IC50) in [1] and in data set [2] were 8.02 µM and above 50 µM, respectively. In [3], the Activity was found to be 39.1%. For the same molecule, the outcome in [5] was Active.
Consider `O=[N+]([O-])c1ccc(NCC(O)CNc2ccc(-c3nc4ccccc4o3)cc2)cc1` (stereo unspecified), for which the IC50 in data set [1] was 1.15 µM; in data set [2], above 50 µM. In addition, in data set [3], the Activity was found to be 44.4%.
Take `S=C(Nc1ccc(Cl)cc1)Nc1ccc(-c2nc3ccccc3o2)cc1`: the half-maximal inhibitory concentration (IC50) in [1] was 12.6 µM; in [2] it was above 50 µM. Also, in data set [3], the Activity worked out at 40%.
As to `O=C1O[C@H]([C@@H](O)CO)C(O)=C1O`, the Activity in data set [3] was found to be 56.6%.
In the case of `Oc1ccc(NC(=S)Nc2ccc(-c3nc4ccccc4o3)cc2)cc1`, in [4], the Ratio IC50 was 31. Also, the IC50 was determined as 0.882 µM in data set [1] and 27.4 µM in data set [2]. Besides, in data set [3], the Activity is 50.2%.
Take `Clc1ccc(/C=N/c2ccc(-c3nc4ccccc4o3)cc2)cc1`: the half-inhibitory concentration (IC50) in [1] is 2.27 µM; in data set [2] it was above 50 µM. Also, in data set [3], the Activity is below 10%.
Turning to `COc1cc2c(cc1OC)C(=O)C(CC1CCN(Cc3ccccc3)CC1)C2` (stereo unspecified) [DONEPEZIL], the result in [6] and in data set [8] was Active. Moreover, the Activity in [3] is below 10%. Besides, the Time in [7] is 167.75 s.
For `CC(C)c1ccc(CNc2ccc(-c3nc4ccccc4o3)cc2)cc1`, the IC50 in [1] and in data set [2] was above 50 µM in each case. Besides, in data set [3], the Activity was found to be 27.5%.
On to `Clc1ccc(CNc2ccc(-c3nc4ccccc4o3)cc2)cc1`, for which the results for the half-inhibitory concentration (IC50) in [1] and in data set [2] were 6.3 µM and above 50 µM, respectively. In addition, the Activity in data set [3] stood at 25.1%.
Regarding `OC(CNc1ccccc1)CNc1ccc(-c2nc3ccccc3o2)cc1` (stereo unspecified), the Ratio IC50 in data set [4] came out at 4.2. The IC50 in [1] is 0.842 µM; in data set [2], 3.54 µM. In addition, in data set [3], the Activity came out at 48.2%.
As to `O=c1ccc2ccc(OCCCCCSc3nc4ccccc4o3)cc2o1`, the 50% inhibitory concentration (IC50) in data set [1] was found to be 25.4 µM.
As for `O=[N+]([O-])c1ccc(NC(=S)Nc2ccc(-c3nc4ccccc4o3)cc2)cc1`, the half-inhibitory concentration (IC50) in data set [1] was 9.43 µM; in [2], above 50 µM. Besides, the Activity in [3] came out at 45.9%.
Take `OC(CNc1ccc(Br)cc1)CNc1ccc(-c2nc3ccccc3o2)cc1` (stereo unspecified): the IC50 in [1] was 1.31 µM; in data set [2], above 50 µM. The Activity in [3] was determined as 42.4%.
Take `S=C(Nc1ccc(Br)cc1)Nc1ccc(-c2nc3ccccc3o2)cc1`: the IC50 was 8.72 µM in data set [1] and above 50 µM in [2]. In data set [3], the Activity turned out to be 43.1%.
As for `c1ccc(CNc2ccc(-c3nc4ccccc4o3)cc2)cc1`, the figures for the IC50 in [1] and in [2] were 7.21 µM and above 50 µM, respectively. The Activity in [3] turned out to be 24.1%.
For `S=C(Nc1ccccc1)Nc1ccc(-c2nc3ccccc3o2)cc1`, the 50% inhibitory concentration (IC50) in data set [1] and in data set [2] was above 50 µM throughout. The Activity in data set [3] was found to be 45.3%.
For the molecule `O=[N+]([O-])c1ccc(CNc2ccc(-c3nc4ccccc4o3)cc2)cc1`, the IC50 in [1] is 24.2 µM; in [2] it was above 50 µM. Besides, the Activity in data set [3] amounted to 22.7%.
`OC(CNc1ccc(Cl)cc1)CNc1ccc(-c2nc3ccccc3o2)cc1` (stereo unspecified): the Ratio IC50 in [4] amounted to 6.3. This molecule also gave an inhibition in data set [9] of 11.2%. This molecule showed a Papp at 18 h in [10] of 45.5 nm/s. The Activity entry is “Non-Toxic” in data set [11], “Non-Toxic” in data set [14], 49.6% in [3] and “Non-Toxic” in data set [18]. In addition, the outcome in data set [12], in data set [13], in data set [15], in data set [16], in data set [17] and in data set [20] was Active. In addition, the outcome in [21] and in [23] was Active. The IC50 in data set [1] worked out at 0.363 µM; in data set [2] it was 2.29 µM. Also, the inhibition result in data set [19] was “Active”. Further, in data set [22], the Ki came to 0.19 µM. In data set [7], the Time was found to be 298.75 s. In addition, the result in [8] was inactive.
For `Cc1nnc2n1-c1ccc(Cl)cc1C(c1ccccc1)=NC2` [ALPRAZOLAM], the Papp at 18 h in data set [10] is 42 nm/s. Besides, in data set [24], the Papp is 54 nm/s.
With `O=[N+]([O-])c1ccc(/C=N/c2ccc(-c3nc4ccccc4o3)cc2)cc1`, the IC50 in data set [1] is 1.79 µM; in data set [2], above 50 µM. In data set [3], the Activity is below 10%.
As to `C(=N\c1ccc(-c2nc3ccccc3o2)cc1)/c1ccccc1`, the 50% inhibitory concentration (IC50) in data set [1] and in data set [2] was above 50 µM in each case. In addition, in [3], the Activity was below 10%.
As for `Brc1ccc(CNc2ccc(-c3nc4ccccc4o3)cc2)cc1`, the half-inhibitory concentration (IC50) is 8.44 µM in data set [1] and above 50 µM in [2]. Moreover, the Activity in [3] is 18.5%.
In data set [1], `O=c1cc(-c2ccccc2)c2ccc(NCCCSc3nc4ccccc4o3)cc2o1` showed an IC50 of 13 µM.
Regarding `CC(C)c1ccc(NC(=S)Nc2ccc(-c3nc4ccccc4o3)cc2)cc1`, the 50% inhibitory concentration (IC50) in data set [1] and in data set [2] was above 50 µM each time. For the same molecule, in data set [3], the Activity turned out to be 42.3%.

What is called IC50 is the concentration at which inhibition is half-maximal. A low value points to higher potency. As usually defined, the inhibition is the relative decrease from the control value, in per cent. The term Ki denotes the equilibrium dissociation constant of an inhibitor or competing ligand from its target.
